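Compound exposure: 48 hours, 5 concentrations, 96-well plates. GI50 marks 50% less growth.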 Active and inactive are the calls of the source. Rule as the data show it: active = GI50 up to about 1.1 µM and inactive = higher.
Tests used:
Assay in all cases: NCI tumour cell line growth inhibition, 48 h
HOP-62 = system: HOP-62
COLO 205 = system: COLO 205
UO-31 = system: UO-31
DLD-1 = system: DLD-1
SF-295 = system: SF-295
XF498 = system: XF498
DMS-114 = system: DMS-114
SW-620 = system: SW-620
NCI-H460 = system: NCI-H460
HCC 2998 = system: HCC 2998
EKVX = system: EKVX
KM-20L2 = system: KM-20L2
SF-268 = system: SF-268
M19-MEL = system: M19-MEL
M14 = system: M14
CAKI-1 = system: CAKI-1
SR = system: SR
RXF 631 = system: RXF 631
LXFL 529 = system: LXFL 529
HOP-18 = system: HOP-18
K562 = system: K562
OVCAR-4 = system: OVCAR-4
MOLT-4 = system: MOLT-4
SK-MEL-28 = system: SK-MEL-28
HCT-15 = system: HCT-15
HCT-116 = system: HCT-116
UACC-257 = system: UACC-257
SNB-78 = system: SNB-78
CCRF-CEM = system: CCRF-CEM
OVCAR-8 = system: OVCAR-8
NCI-H522 = system: NCI-H522
786-0 = system: 786-0
LOX IMVI = system: LOX IMVI
SNB-19 = system: SNB-19
A549 = system: A549
HOP-92 = system: HOP-92
HT-29 = system: HT-29
SK-OV-3 = system: SK-OV-3
SF-539 = system: SF-539
IGROV-1 = system: IGROV-1
U-251 = system: U-251
ACHN = system: ACHN
SK-MEL-5 = system: SK-MEL-5
TK-10 = system: TK-10
DMS-273 = system: DMS-273
A498 = system: A498
SN12C = system: SN12C
OVCAR-5 = system: OVCAR-5
NCI-H226 = system: NCI-H226
Malme-3M = system: Malme-3M
NCI-H23 = system: NCI-H23
OVCAR-3 = system: OVCAR-3
KM12 = system: KM12
SNB-75 = system: SNB-75
RXF 393 = system: RXF 393
UACC-62 = system: UACC-62
SK-MEL-2 = system: SK-MEL-2
RPMI-8226 = system: RPMI-8226
HL-60 = system: HL-60

Question: How did the GI50 (HOP-62) turn out when O=C1O[B-](c2ccccc2)(c2ccccc2)[NH2+]C1CS (centres undefined) was run?
Answer: > 100 µM (inactive)

Question: And the GI50 (COLO 205)?
Answer: 33.4 µM (inactive)

Question: And the GI50 (UO-31)?
Answer: 52.2 µM (inactive)

Question: And the GI50 (DLD-1)?
Answer: 33 µM (inactive)

Question: And the GI50 (SF-295)?
Answer: > 100 µM (inactive)

Question: And the GI50 (XF498)?
Answer: > 100 µM (inactive)

Question: What about the GI50 (DMS-114) of the same compound?
Answer: 34.9 µM (inactive)

Question: And the GI50 (SW-620)?
Answer: 24.5 µM (inactive)

Question: What about the GI50 (NCI-H460) of the same compound?
Answer: 66.1 µM (inactive)

Question: What about the GI50 (HCC 2998) of the same compound?
Answer: 49.7 µM (inactive)

Question: And the GI50 (EKVX)?
Answer: > 100 µM (inactive)

Question: And the GI50 (KM-20L2)?
Answer: 64.7 µM (inactive)

Question: What about the GI50 (SF-268) of the same compound?
Answer: 96.4 µM (inactive)

Question: And the GI50 (M19-MEL)?
Answer: 35.3 µM (inactive)

Question: And the GI50 (M14)?
Answer: 52.6 µM (inactive)

Question: What about the GI50 (CAKI-1) of the same compound?
Answer: 35.6 µM (inactive)

Question: And the GI50 (SR)?
Answer: 28.8 µM (inactive)

Question: And the GI50 (RXF 631)?
Answer: 50.8 µM (inactive)

Question: What about the GI50 (LXFL 529) of the same compound?
Answer: 39.9 µM (inactive)

Question: What about the GI50 (HOP-18) of the same compound?
Answer: > 100 µM (inactive)

Question: What about the GI50 (K562) of the same compound?
Answer: 23.9 µM (inactive)

Question: What about the GI50 (OVCAR-4) of the same compound?
Answer: 47.2 µM (inactive)

Question: What about the GI50 (MOLT-4) of the same compound?
Answer: 25.4 µM (inactive)

Question: What about the GI50 (SK-MEL-28) of the same compound?
Answer: 66.1 µM (inactive)

Question: What about the GI50 (HCT-15) of the same compound?
Answer: 36 µM

Question: What about the GI50 (HCT-116) of the same compound?
Answer: 33.7 µM (inactive)

Question: And the GI50 (UACC-257)?
Answer: 66.1 µM (inactive)

Question: What about the GI50 (SNB-78) of the same compound?
Answer: 65.9 µM (inactive)

Question: What about the GI50 (CCRF-CEM) of the same compound?
Answer: 17.7 µM (inactive)

Question: What about the GI50 (OVCAR-8) of the same compound?
Answer: > 100 µM (inactive)

Question: And the GI50 (NCI-H522)?
Answer: 43.3 µM (inactive)

Question: And the GI50 (786-0)?
Answer: 21.4 µM (inactive)

Question: And the GI50 (LOX IMVI)?
Answer: 24.3 µM (inactive)

Question: And the GI50 (SNB-19)?
Answer: > 100 µM (inactive)

Question: And the GI50 (A549)?
Answer: 92.3 µM (inactive)

Question: What about the GI50 (HOP-92) of the same compound?
Answer: 27.3 µM (inactive)

Question: And the GI50 (HT-29)?
Answer: 71.3 µM (inactive)

Question: What about the GI50 (SK-OV-3) of the same compound?
Answer: > 100 µM (inactive)

Question: And the GI50 (SF-539)?
Answer: 57.7 µM (inactive)

Question: What about the GI50 (IGROV-1) of the same compound?
Answer: 78 µM (inactive)

Question: And the GI50 (U-251)?
Answer: 63.5 µM (inactive)

Question: What about the GI50 (ACHN) of the same compound?
Answer: 36.7 µM (inactive)

Question: And the GI50 (SK-MEL-5)?
Answer: 55 µM (inactive)

Question: What about the GI50 (TK-10) of the same compound?
Answer: 85.1 µM (inactive)

Question: And the GI50 (DMS-273)?
Answer: 34.9 µM (inactive)

Question: And the GI50 (A498)?
Answer: 41.8 µM (inactive)

Question: What about the GI50 (SN12C) of the same compound?
Answer: 80.4 µM (inactive)

Question: And the GI50 (OVCAR-5)?
Answer: > 100 µM (inactive)

Question: What about the GI50 (NCI-H226) of the same compound?
Answer: 68.4 µM (inactive)

Question: What about the GI50 (Malme-3M) of the same compound?
Answer: 38.2 µM (inactive)

Question: And the GI50 (NCI-H23)?
Answer: 61.2 µM (inactive)

Question: And the GI50 (OVCAR-3)?
Answer: 38.8 µM (inactive)

Question: And the GI50 (KM12)?
Answer: 31.8 µM (inactive)

Question: And the GI50 (SNB-75)?
Answer: 34.8 µM (inactive)

Question: And the GI50 (RXF 393)?
Answer: 23.3 µM (inactive)

Question: What about the GI50 (UACC-62) of the same compound?
Answer: 42 µM (inactive)

Question: What about the GI50 (SK-MEL-2) of the same compound?
Answer: 83.8 µM (inactive)

Question: And the GI50 (RPMI-8226)?
Answer: 20.2 µM (inactive)

Question: And the GI50 (HL-60)?
Answer: 23.9 µM (inactive)

From ChEMBL document CHEMBL1201862, “PubChem BioAssay data set” (2004)
